Measured values published in PMC11581222, “Inhibition of CCl4-induced liver inflammation and fibrosis by a NEU3 inhibitor” (PLOS ONE, 2024).
Where two headings read alike, the source gives them in different places.

Legend:
[1] = molecular target: Adrenergic α1A (Rattus norvegicus, UniProt P43140); test: Eurofins radioligand receptor binding inhibition; conditions: 10 μM 2AP
[2] = molecular target: CYP2C8 (Homo sapiens, UniProt P10632); test: Eurofins CYP450 inhibition, dibenzyl fluorescein substrate; type: in vitro ADME; conditions: recombinant CYP2C8, probe dibenzyl fluorescein, 10 μM 2AP
[3] = test system: GABAA Flunitrazepam; test: Eurofins radioligand receptor binding inhibition; conditions: 10 μM 2AP
[4] = test system: human recombinant NEU3; set-up: method as in PMID 33144389; conditions: cited from earlier work
[5] = molecular target: Opiate μ (OP3, MOP) (Homo sapiens, UniProt P35372); test: Eurofins radioligand receptor binding inhibition; set-up: dose or concentration left out as unconfirmed
[6] = molecular target: Muscarinic M2 (Homo sapiens, UniProt P08172); test: Eurofins radioligand receptor binding inhibition; set-up: dose or concentration left out as unconfirmed
[7] = molecular target: Adrenergic α1B (Rattus norvegicus, UniProt P15823); test: Eurofins radioligand receptor binding inhibition; conditions: 10 μM 2AP
[8] = molecular target: Adenosine A2A (Homo sapiens, UniProt P29274); test: Eurofins radioligand receptor binding inhibition; conditions: 10 μM 2AP
[9] = molecular target: Sigma σ1 (Homo sapiens, UniProt Q99720); test: Eurofins radioligand receptor binding inhibition; conditions: 10 μM 2AP
[10] = test system: Imidazoline I2, Central; test: Eurofins radioligand receptor binding inhibition; conditions: 10 μM 2AP
[11] = molecular target: CYP2B6 (Homo sapiens, UniProt P20813); test: Eurofins CYP450 inhibition, 3-Cyano-7-ethoxycoumarin substrate; type: in vitro ADME; conditions: recombinant CYP2B6, probe 3-cyano-7-ethoxycoumarin, 10 μM 2AP
[12] = molecular target: Histamine H1 (Homo sapiens, UniProt P35367); test: Eurofins radioligand receptor binding inhibition; conditions: 10 μM 2AP
[13] = molecular target: Muscarinic M3 (Homo sapiens, UniProt P20309); test: Eurofins radioligand receptor binding inhibition; conditions: 10 μM 2AP
[14] = molecular target: Adrenergic β1 (Homo sapiens, UniProt P08588); test: Eurofins radioligand receptor binding inhibition; conditions: 10 μM 2AP
[15] = molecular target: Nicotinic Acetylcholine α3β4 (Homo sapiens, UniProt P30926+P32297); test: Eurofins radioligand receptor binding inhibition; conditions: 10 μM 2AP
[16] = test system: Sodium Channel, Site 2; test: Eurofins radioligand receptor binding inhibition; conditions: 10 μM 2AP
[17] = molecular target: CYP3A4 (Homo sapiens, UniProt P08684); test: Eurofins CYP450 inhibition, 7-Benzyloxy-4-(trifluoromethyl)-coumarin substrate; type: in vitro ADME; conditions: recombinant CYP3A4, probe 7-benzyloxy-4-(trifluoromethyl)-coumarin, 10 μM 2AP
[18] = molecular target: Adrenergic α2A (Homo sapiens, UniProt P08913); test: Eurofins radioligand receptor binding inhibition; conditions: 10 μM 2AP
[19] = molecular target: Nicotinic Acetylcholine α1, Bungarotoxin (Homo sapiens, UniProt P02708+P07510+Q07001); test: biochemical; type: binding; set-up: dose or concentration left out as unconfirmed
[20] = test system: Potassium Channel [KATP]; test: Eurofins radioligand receptor binding inhibition; conditions: 10 μM 2AP
[21] = test system: Glutamate; test: Eurofins radioligand receptor binding inhibition; conditions: 10 μM 2AP
[22] = test system: mouse recombinant NEU3; set-up: method as in PMID 33144389; conditions: pH 6.9, read-out: IC50, inhibition of release of active TGF-β1 from human latent TGF-β1; cited from earlier work
[23] = molecular target: Dopamine D1 (Homo sapiens, UniProt P21728); test: Eurofins radioligand receptor binding inhibition; set-up: dose or concentration left out as unconfirmed
[24] = test system: aromatase/CYP19A1, CYP2C8, CYP1A2, CYP2B6, CYP2C19, CYP2C9, CYP2D6 and CYP3A4 (mean over 8 enzymes); test: Eurofins CYP450 panel, mean over 8 enzymes; type: in vitro ADME; conditions: human, recombinant CYP450 enzymes; 10 μM 2AP; mean over 8 CYP450 enzymes; read-out: percent inhibition of CYP450 enzymes, mean ± SD, n = 8
[25] = molecular target: Adrenergic β2 (Homo sapiens, UniProt P07550); test: Eurofins radioligand receptor binding inhibition; set-up: dose or concentration left out as unconfirmed
[26] = test system: bleomycin-induced pulmonary fibrosis; conditions: cited from earlier work; for pulmonary fibrosis: injections, male mice
[27] = molecular target: Prostanoid EP4 (Homo sapiens, UniProt P35408); test: Eurofins radioligand receptor binding inhibition; conditions: 10 μM 2AP
[28] = test system: GABAA Muscimol; test: Eurofins radioligand receptor binding inhibition; conditions: 10 μM 2AP
[29] = test system: CCl4-induced liver inflammation and fibrosis; conditions: for body weight, CCl4-induced weight loss: 1 mg/kg 2AP i.p. daily from day 21
[30] = molecular target: Dopamine D2S (Homo sapiens, UniProt P14416); test: Eurofins radioligand receptor binding inhibition; set-up: dose or concentration left out as unconfirmed
[31] = molecular target: Aromatase / CYP19A1 (Homo sapiens, UniProt P11511); test: Eurofins CYP450 inhibition, dibenzyl fluorescein substrate; type: biochemical; conditions: 10 μM 2AP
[32] = molecular target: CYP2C9 (Homo sapiens, UniProt P11712); test: Eurofins CYP450 inhibition, 3-Cyano-7-ethoxycoumarin substrate; type: in vitro ADME; conditions: recombinant CYP2C9, probe 3-cyano-7-ethoxycoumarin, 10 μM 2AP
[33] = molecular target: hERG potassium channel (Homo sapiens, UniProt Q12809); test: Eurofins radioligand receptor binding inhibition; conditions: 10 μM 2AP
[34] = molecular target: CYP2D6 (Homo sapiens, UniProt P10635); test: Eurofins CYP450 inhibition, 3-Cyano-7-ethoxycoumarin substrate; type: in vitro ADME; conditions: recombinant CYP2D6, probe 3-cyano-7-ethoxycoumarin, 10 μM 2AP
[35] = test system: 28 receptors; test: Eurofins panel of 28 receptors, inhibition of binding; conditions: 10 μM 2AP
[36] = molecular target: CYP2C19 (Homo sapiens, UniProt P33261); test: Eurofins CYP450 inhibition, 3-Cyano-7-ethoxycoumarin substrate; type: in vitro ADME; conditions: recombinant CYP2C19, probe 3-cyano-7-ethoxycoumarin, 10 μM 2AP
[37] = test system: Calcium Channel L-Type, Dihydropyridine; test: Eurofins radioligand receptor binding inhibition; conditions: 10 μM 2AP
[38] = molecular target: Cannabinoid CB1 (Homo sapiens, UniProt P21554); test: Eurofins radioligand receptor binding inhibition; set-up: dose or concentration left out as unconfirmed
[39] = molecular target: Adenosine A1 (Homo sapiens, UniProt P30542); test: Eurofins radioligand receptor binding inhibition; set-up: dose or concentration left out as unconfirmed
[40] = molecular target: Norepinephrine (NET) (Homo sapiens, UniProt P23975); test: Eurofins radioligand receptor binding inhibition; conditions: 10 μM 2AP
Description: (§1) CYP450 enzymes and a panel of receptors were assessed for inhibition by 10 μM 2AP using HitProfilingScreen + CYP450 LeadHunter Panel at Eurofins (Eurofins Panlabs Discovery Services, New Taipei City, Taiwan). Briefly, human recombinant CYP450 enzymes were preincubated at 37°C for 15 minutes with 10 μM 2AP. Enzyme activity was assessed by cleavage of the CYP450 fluorogenic substrates dibenzyl fluorescein (aromatase / CYP19A1, CYP2C8), 3-Cyano-7-ethoxycoumarin (CYP1A2, CYP2B6, CYP2C19, CYP2C9, and CYP2D6), or 7-Benzyloxy-4-(trifluoromethyl)-coumarin (CYP3A4), as described previously. Inhibition of receptor binding was assessed using a panel of receptors expressed on cell lines or using tissue extracts and preincubated at 25°C for 30–120 minutes with 10 μM 2AP. Cells or tissue extracts were then incubated with radiolabeled specific ligands a described (https://www.eurofinsdiscovery.com/catalog/hitprofilingscreen-cyp450-leadhunter-panel-tw/PP115) and inhibition of binding was reported (S2 Table).

[41] = molecular target: Serotonin (5-Hydroxytryptamine) 5-HT2B (Homo sapiens, UniProt P41595); test: Eurofins radioligand receptor binding inhibition; conditions: 10 μM 2AP
Description: as §1

[42] = molecular target: CYP1A2 (Homo sapiens, UniProt P05177); test: Eurofins CYP450 inhibition, 3-Cyano-7-ethoxycoumarin substrate; type: in vitro ADME; conditions: recombinant CYP1A2, probe 3-cyano-7-ethoxycoumarin, 10 μM 2AP
Description: as §1

[43] = test system: high fat diet (HFD)-induced liver inflammation, weight gain and steatosis; set-up: method as in PMID 33039353; conditions: injections, cited from earlier work
[44] = test system: MCD diet-induced liver fibrosis; set-up: method as in PMID 33378413; conditions: cited from earlier work
[45] = CCl4+2AP vs CCl4, male and female mice
[46] = treatments vs control (oil) mice

Chain of Adrenergic α1A (P43140 whole entry): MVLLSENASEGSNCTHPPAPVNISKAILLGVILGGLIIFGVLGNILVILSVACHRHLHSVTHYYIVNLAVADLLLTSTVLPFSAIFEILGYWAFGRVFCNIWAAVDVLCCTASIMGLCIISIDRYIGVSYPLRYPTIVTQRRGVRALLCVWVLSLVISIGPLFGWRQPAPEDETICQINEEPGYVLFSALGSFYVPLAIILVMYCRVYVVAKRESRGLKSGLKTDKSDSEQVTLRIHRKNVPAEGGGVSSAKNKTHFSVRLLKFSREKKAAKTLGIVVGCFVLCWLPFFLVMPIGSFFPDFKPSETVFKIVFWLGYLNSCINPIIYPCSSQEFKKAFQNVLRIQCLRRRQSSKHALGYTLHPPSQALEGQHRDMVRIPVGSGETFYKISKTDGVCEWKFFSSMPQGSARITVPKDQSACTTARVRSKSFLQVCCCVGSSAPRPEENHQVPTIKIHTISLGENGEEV
Chain of Muscarinic M3 (P20309 whole entry): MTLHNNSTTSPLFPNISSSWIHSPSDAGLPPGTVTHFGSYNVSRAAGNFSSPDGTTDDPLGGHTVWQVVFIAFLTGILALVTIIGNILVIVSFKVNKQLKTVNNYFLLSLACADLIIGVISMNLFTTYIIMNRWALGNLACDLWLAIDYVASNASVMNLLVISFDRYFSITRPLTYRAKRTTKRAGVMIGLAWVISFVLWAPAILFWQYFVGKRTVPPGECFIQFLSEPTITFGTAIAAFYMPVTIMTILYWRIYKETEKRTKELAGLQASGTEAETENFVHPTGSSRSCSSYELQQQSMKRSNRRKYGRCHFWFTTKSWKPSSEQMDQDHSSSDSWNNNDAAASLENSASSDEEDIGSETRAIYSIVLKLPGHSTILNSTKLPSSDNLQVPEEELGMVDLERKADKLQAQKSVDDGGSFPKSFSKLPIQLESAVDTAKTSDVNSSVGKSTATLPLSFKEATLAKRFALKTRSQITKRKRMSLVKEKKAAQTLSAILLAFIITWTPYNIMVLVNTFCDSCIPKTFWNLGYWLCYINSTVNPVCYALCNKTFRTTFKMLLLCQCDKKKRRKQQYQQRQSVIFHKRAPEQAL
Chain of Nicotinic Acetylcholine α1, Bungarotoxin (Q07001 22-517): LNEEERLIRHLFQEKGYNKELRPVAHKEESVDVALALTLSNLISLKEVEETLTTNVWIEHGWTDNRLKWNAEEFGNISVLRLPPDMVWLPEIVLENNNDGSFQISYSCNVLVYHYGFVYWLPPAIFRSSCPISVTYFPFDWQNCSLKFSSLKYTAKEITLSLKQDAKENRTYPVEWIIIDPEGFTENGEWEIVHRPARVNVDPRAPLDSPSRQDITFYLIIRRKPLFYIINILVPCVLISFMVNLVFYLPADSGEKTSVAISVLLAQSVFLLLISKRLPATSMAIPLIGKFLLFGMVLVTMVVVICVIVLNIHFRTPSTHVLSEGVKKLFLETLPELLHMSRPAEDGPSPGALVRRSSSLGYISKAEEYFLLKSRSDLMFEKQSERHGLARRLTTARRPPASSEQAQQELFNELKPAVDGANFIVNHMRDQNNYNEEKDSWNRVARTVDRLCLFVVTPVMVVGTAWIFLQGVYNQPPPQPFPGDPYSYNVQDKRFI
Chain of Nicotinic Acetylcholine α1, Bungarotoxin (P07510 23-517): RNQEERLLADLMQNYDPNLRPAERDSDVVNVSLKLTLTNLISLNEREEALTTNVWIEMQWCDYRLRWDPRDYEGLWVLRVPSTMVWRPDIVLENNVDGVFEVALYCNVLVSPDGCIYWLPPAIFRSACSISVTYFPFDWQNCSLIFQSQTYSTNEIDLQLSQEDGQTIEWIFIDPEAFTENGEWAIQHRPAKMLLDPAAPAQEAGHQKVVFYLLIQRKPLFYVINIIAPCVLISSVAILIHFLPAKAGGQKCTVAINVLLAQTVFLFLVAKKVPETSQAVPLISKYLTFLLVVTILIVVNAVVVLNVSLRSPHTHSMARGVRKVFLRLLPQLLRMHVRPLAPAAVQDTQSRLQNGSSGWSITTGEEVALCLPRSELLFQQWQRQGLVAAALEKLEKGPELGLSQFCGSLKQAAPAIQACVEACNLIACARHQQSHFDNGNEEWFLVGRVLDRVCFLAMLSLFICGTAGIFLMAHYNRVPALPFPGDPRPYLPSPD
Chain of Nicotinic Acetylcholine α1, Bungarotoxin (P11230 24-501, further chain): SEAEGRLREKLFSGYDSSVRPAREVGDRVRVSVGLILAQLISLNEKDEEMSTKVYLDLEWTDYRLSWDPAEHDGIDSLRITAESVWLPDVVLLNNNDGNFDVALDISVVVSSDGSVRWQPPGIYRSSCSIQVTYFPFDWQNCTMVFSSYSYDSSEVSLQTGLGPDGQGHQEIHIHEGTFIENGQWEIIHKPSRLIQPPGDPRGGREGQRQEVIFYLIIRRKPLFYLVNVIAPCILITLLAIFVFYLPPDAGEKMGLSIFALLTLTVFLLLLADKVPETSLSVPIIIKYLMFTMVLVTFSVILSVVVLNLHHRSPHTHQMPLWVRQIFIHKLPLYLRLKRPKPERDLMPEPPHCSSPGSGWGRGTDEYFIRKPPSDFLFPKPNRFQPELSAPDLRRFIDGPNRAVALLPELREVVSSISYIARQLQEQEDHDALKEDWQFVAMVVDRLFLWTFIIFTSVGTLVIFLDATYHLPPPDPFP
Chain of Nicotinic Acetylcholine α1, Bungarotoxin (P02708 21-457): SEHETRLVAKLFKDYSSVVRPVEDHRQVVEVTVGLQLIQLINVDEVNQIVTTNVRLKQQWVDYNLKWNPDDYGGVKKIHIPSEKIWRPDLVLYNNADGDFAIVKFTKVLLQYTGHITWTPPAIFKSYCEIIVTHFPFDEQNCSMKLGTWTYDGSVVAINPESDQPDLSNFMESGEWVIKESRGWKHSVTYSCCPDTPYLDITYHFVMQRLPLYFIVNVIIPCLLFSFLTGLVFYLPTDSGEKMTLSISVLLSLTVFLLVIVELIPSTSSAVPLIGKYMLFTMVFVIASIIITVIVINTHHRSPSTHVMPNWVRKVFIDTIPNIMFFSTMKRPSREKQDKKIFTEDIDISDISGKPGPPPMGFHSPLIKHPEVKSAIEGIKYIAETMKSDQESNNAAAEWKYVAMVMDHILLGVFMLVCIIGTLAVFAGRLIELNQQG
Chain of Nicotinic Acetylcholine α3β4 (P32297 32-505): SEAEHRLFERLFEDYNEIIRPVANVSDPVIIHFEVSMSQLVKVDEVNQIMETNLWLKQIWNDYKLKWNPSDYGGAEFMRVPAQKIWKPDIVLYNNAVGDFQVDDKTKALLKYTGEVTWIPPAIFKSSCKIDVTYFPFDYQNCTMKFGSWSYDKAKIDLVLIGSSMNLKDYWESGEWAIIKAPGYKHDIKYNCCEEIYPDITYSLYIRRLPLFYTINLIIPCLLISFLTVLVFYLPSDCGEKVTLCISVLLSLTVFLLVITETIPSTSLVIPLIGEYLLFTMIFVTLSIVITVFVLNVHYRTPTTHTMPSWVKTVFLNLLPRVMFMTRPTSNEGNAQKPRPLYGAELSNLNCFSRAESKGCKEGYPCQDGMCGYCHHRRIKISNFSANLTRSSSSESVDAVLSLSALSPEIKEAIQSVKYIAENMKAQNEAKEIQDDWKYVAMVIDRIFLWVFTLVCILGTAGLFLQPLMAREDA
Chain of Nicotinic Acetylcholine α3β4 (P30926 22-498): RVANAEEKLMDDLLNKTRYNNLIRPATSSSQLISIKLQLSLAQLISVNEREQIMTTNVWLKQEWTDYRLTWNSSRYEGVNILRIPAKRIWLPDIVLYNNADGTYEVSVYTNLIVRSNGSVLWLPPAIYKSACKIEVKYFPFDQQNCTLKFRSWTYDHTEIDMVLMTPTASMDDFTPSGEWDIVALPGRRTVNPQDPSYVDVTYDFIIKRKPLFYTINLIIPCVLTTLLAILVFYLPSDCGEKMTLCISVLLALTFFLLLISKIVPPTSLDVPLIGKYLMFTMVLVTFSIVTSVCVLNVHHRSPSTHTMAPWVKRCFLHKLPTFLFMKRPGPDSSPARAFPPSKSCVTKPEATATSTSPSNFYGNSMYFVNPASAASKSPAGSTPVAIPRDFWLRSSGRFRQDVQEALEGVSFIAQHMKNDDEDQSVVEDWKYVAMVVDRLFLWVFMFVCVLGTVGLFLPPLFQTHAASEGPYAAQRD
Chain of Muscarinic M2 (P08172 whole entry): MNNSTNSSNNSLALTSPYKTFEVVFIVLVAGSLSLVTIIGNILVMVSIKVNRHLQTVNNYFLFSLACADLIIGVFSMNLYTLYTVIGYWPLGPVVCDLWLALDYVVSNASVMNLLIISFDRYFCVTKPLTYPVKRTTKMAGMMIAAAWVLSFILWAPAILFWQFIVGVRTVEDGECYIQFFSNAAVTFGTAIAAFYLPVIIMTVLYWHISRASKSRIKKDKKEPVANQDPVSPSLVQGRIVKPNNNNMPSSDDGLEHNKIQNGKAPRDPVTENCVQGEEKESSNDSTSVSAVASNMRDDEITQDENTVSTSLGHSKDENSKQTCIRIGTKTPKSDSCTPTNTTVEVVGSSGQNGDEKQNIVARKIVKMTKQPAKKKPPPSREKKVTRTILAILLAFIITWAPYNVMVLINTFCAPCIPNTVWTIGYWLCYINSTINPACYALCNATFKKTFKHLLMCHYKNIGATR
Chain of CYP2B6 (P20813 whole entry): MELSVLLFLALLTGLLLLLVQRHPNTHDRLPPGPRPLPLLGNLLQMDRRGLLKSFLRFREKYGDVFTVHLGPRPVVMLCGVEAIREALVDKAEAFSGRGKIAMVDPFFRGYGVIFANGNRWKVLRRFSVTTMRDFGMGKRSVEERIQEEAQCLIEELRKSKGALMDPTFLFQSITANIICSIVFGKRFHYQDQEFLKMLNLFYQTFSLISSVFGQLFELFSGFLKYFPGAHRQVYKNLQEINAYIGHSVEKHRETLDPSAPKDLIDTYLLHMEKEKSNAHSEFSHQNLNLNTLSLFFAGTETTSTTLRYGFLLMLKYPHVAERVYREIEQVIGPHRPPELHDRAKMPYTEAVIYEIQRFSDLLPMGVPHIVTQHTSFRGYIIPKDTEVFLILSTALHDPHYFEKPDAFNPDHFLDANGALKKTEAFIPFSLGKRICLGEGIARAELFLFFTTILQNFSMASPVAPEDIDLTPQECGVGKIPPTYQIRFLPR

With CC(=O)c1ccccn1 [2AP, 2-acetyl pyridine] the inhibition at 10 µM [1] was 5%, the inhibition at 10 µM [2] was 0% and the “% Inhibition” value [3] was -2%. For the same compound, the IC50 ([4]; human recombinant NEU3, pH 6.9, read-out: IC50, inhibition of release of active TGF-β1 from human latent TGF-β1) was 40 ± 6 nM, the inhibition [5] was 0% and the inhibition [6] was 4%. For the same compound, the inhibition at 10 µM [7] was 2%, the inhibition at 10 µM [8] was 0% and the inhibition at 10 µM [9] was 13%. The “% Inhibition” value [10] was 3%, the inhibition at 10 µM [11] was 0% and the inhibition at 10 µM [12] was 8%. It also gave an inhibition at 10 µM [13] of 1%, an inhibition at 10 µM [14] of 3% and an inhibition at 10 µM [15] of -2%. For the same compound, the “% Inhibition” value [16] was 13%, the inhibition at 10 µM [17] was -2% and the inhibition at 10 µM [18] was -5%. For the same compound, the inhibition [19] was 5%, the “% Inhibition” value [20] was -11% and the “% Inhibition” value [21] was 27%. The IC50 [22] was 800 ± 170 nM, the inhibition [23] was -5% and the inhibition at 10 µM [24] was 1.5 ± 1.2%. For the same compound, the inhibition [25] was 5%, the pulmonary fibrosis [26] was “attenuate bleomycin-induced pulmonary fibrosis” and the inhibition at 10 µM [27] was 7%. For the same compound, the “% Inhibition” value [28] was 4%, the “toxic effects of daily injections” value ([29]; 1 mg/kg 2AP i.p. daily, days 21-42) was “did not appear to have any obvious toxic effects” and the “body weight, CCl4-induced weight loss” value ([29]; CCl4+2AP vs CCl4, female mice) was “response of female mice to 2AP treatment”. For the same compound, the “body weight, CCl4-induced weight loss” value ([29]; CCl4+2AP vs CCl4, male and female combined, days 39 and 40) was “less weight loss”, the “body weight, CCl4-induced weight loss” value ([29]; CCl4+2AP vs CCl4, male mice) was “not apparent in male mice” and the “number of S100A8/MRP8 positive cells (neutrophils) in liver” value ([29]; CCl4+2AP vs CCl4, female mice) was “reduction in the number of S100A8/MRP8 positive cells”. For the same compound, the “liver NEU3 staining” value [29, 45] was “attenuated the CCl4-induced NEU3 staining”, the “liver desialylation, PNA lectin staining” value [29, 45] was “reduced PNA staining” and the “liver fibrosis, picrosirius red staining” value [29, 45] was “decreased picrosirius red staining”. For the same compound, the “liver inflammation, vessels with accumulation of immune cells (H&E)” value [29, 45] was “attenuated the CCl4 induced inflammation”, the “number of Mac2 positive cells around liver vessels” value [29, 45] was “decreased the number of Mac2 positive cells in the vessel areas” and the “number of Mac2 positive cells in liver” value [29, 45] was “decreased the number of Mac2 positive cells”. The “steatosis, oil red O staining of liver” value [29, 45] was “no significant differences in oil red O staining”, the liver hydroxyproline levels ([29]; CCl4+2AP vs CCl4, male mice) was “reduced hydroxyproline levels” and the “kidney, spleen, heart, or brown fat weights at day 42” value ([29]; mouse, in vivo) was “no significant effect”. The “liver NEU3 staining” value ([29]; mouse, in vivo) was “no significant differences in NEU3 staining”, the “liver desialylation, PNA lectin staining” value ([29]; mouse, in vivo) was “did not significantly change PNA staining” and the liver hydroxyproline levels ([29]; mouse, in vivo) was “no significant differences in hydroxyproline levels”. For the same compound, the “liver weight at day 42” value ([29]; mouse, in vivo) was “higher liver weights”, the “lung weight at day 42” value ([29]; mouse, in vivo) was “increased lung weights” and the “number of Mac2 positive cells around liver vessels” value ([29]; mouse, in vivo) was “no significant differences in the number of Mac2 positive cells in vessel areas”. The “number of Mac2 positive cells in liver” value ([29]; mouse, in vivo) was “no significant differences in the number of Mac2 positive cells”, the “number of S100A8 positive cells in liver” value ([29]; mouse, in vivo) was “no significant differences in the number of S100A8 positive cells” and the “overt effects on mice (body weight over 42 days)” value ([29]; mouse, in vivo) was “no overt effects on the mice”. The “steatosis, oil red O staining of liver” value ([29]; mouse, in vivo) was “no significant change in the oil red O staining”, the “white fat weight at day 42” value ([29]; mouse, in vivo) was “reduced white fat” and the “number of CD3 T cells in liver” value [29, 46] was “no significant treatment-induced difference”. The “number of CLEC4F positive Kupffer cells in liver” value [29, 46] was “no significant treatment-induced difference”, the “number of Mac2 positive cells in parenchymal areas of the liver” value ([29]; treatments vs control mice) was “no significant treatment-induced difference” and the inhibition [30] was -4%. The inhibition at 10 µM [31] was 1%, the inhibition at 10 µM [32] was 1% and the inhibition at 10 µM [33] was 4%. For the same compound, the inhibition at 10 µM [34] was 2%, the “inhibitory effect on an additional 28 receptors” value [35] was “no inhibitory effect” and the inhibition at 10 µM [36] was 3%. For the same compound, the “% Inhibition” value [37] was 7%, the inhibition [38] was -1% and the inhibition [39] was 10%. For the same compound, the inhibition at 10 µM [40] was 7%, the inhibition at 10 µM [41] was 12% and the inhibition at 10 µM [42] was 3%.

For CC(=O)N[C@H]1[C@H]([C@H](O)[C@H](O)CO)OC(C(=O)O)=C[C@@H]1O [DANA, N-acetyl-2,3-dehydro-2-deoxyneuraminic acid], the IC50 ([4]; NEU3 species not specified for DANA, read-out: inhibition of active TGF-β1 release) is listed as greater than 100000 nM, the “HFD induced weight gain and steatosis” value [43] is listed as “inhibited HFD induced weight gain and steatosis” and the HFD-induced liver inflammation ([43]; male mice) is listed as “attenuate high fat diet (HFD)-induced liver inflammation”. For the same compound, the “MCD diet-induced liver fibrosis” value [44] was “inhibits methionine and choline-deficient (MCD) diet-induced liver fibrosis”, the “desialylation in lung fibrosis” value [26] was “reversed desialylation in lung fibrosis” and the pulmonary fibrosis [26] was “attenuate bleomycin-induced pulmonary fibrosis”.
